Experimental data reported in patent US20030154499A1, “Mouse unable to express functional alpha-4 integrin protein, and methods for assaying compounds or agents for alpha-4 integrin protein antagonist activity and a genetic marker for evaluating efficacy of modulators of signaling activity of a VLA-4 receptor” (priority 2001, published 2003).

Key:
Format in all cases: in vivo
[1] = test system: M. musculus mRNA for macrophage mannose receptor; assay: Taqman analysis of macrophage mannose receptor mRNA in brain and spleen of treated EAE mice
Method: (§1) In these experiments, EAE (experimental allergic encephalomyelitis) mice were used. The EAE mouse is an animal model for Central Nervous System (CNS) autoimmune disease. It is widely used as a human Multiple Sclerosis (MS) model.
(§2) EAE mice (see protocol below) vehicle only treated and treated with IVL984 or HMR1031 for 14 days (5 mice per group) were sacrificed by cervical dislocation. The brain was aseptically removed and the RNA was prepared using a standard Trizol (Invitrogen) prep (protocol see below). The prepped RNA was run on an agarose gel to determine the quality of the RNA and quantified by UV spec analysis. Taqman analysis was performed using sequence specific primers and probes (sequence see below).
(§3) PLP139-151 peptide is dissolved in H2O:PBS (1:1) solution to a concentration 5 mg/10 ml (for 50 ug PLP per mouse) or 7.5 mg/10 ml (for 75 ug PLP per group) and emulsified with an equal volume of CFA supplemented with 40 mg/10 ml heated-killed mycobacterium tuberculosis H37Ra. Mice are injected s.c. with 0.2 ml of peptide emulsion in the abdominal flank (0.1 ml on each side). On the same day and 72 hr later, mice are injected i.v. with 100 μl of 35 ng and 50 ng of Bordetella Pertussis toxin in saline respectively.
(§4) Treatment IVL984 or HMR1031 or vehicle control only: 0.2% Hydroxypropyl Methylcellulose) started 7 days after immunization, before the first EAE symptoms appeared.
(§5) EAE mice treated with HMR1031A, 50 mg/kg, q.d., s.c. for 14 days from day 7
(§6) EAE mice treated with IVL984 50 mg/kg, q.d., s.c. for 14 days from day 7
Brain was divided into two halves and each half was placed in a steril 1.5 ml tube. 0.5 ml TRIzol was added to each tube and the tissue was homogenized using a hand held tissue homogenizer. After homogenization, another 0.5 ml of TRIzol was added to each tube and the samples were incubated for 5 minutes at room temperature to permit complete dissociation of nucleoprotein complexes.
0.2 ml of Chloroform (Sigma) was added to each tube and vortexed. Samples were incubated for an additional 5 minutes at room temperature and then centrifuged at 12,000×g for 15 minutes at 4° C.
The upper aqueous phase was transferred into a fresh, steril tube and the two sample halves per mouse were combined. 0.5 ml isopropylalcohol was added to each combined sample, vortexed and incubated at room temperature for 10 minutes. The samples were then centrifuged at 12,000×g at 4° C. […]
(§7) The final pellets were briefly air dried and resuspended in nuclease-free, sterile water. […] The concentration was determined by measuring the absorbance at 260 nm.
Taqman primers were ordered for Mus musculus mRNA for macrophage mannose receptor (Accession number: Z11974). […] The results were normalized to 18S and expressed as logarithm base 2 of copy number difference with 18S RNA levels. […]

JAB or SOCS-1 protein = assay: FACS analysis of SOCS-1 (JAB) protein in spleen cells of treated EAE mice; conditions: 50 mg/kg q.d. s.c. for 14 days from day 7, FACS with C- and N-terminal antibodies, vs vehicle
From the text: In these experiments, EAE (experimental allergic encephalomyelitis) mice as well as KO and wt mice of the present invention were used. The EAE mouse is an animal model for Central Nervous System (CNS) autoimmune disease. It is widely used as a human Multiple Sclerosis (MS) model.
EAE mice (see protocol below) vehicle only treated and treated with IVL984 for 14 days (5 mice per group) as well as 5 alpha-4 integrin KO mice of the present invention and 4 wt mice of the same genetic background were sacrificed by cervical dislocation. The spleen was aseptically removed and placed in a 15 ml centrifuge tube containing RPMI 1640 medium with 1% FCS. The spleens were then individually meshed in a 10 cm petri dish through a sterile wire screen using a sterile rubber policeman (0.23 mm pore size screen, Thomas Scientific). The screen was washed and the cell suspension collected and transferred into a 15 ml centrifuge tube. After centrifugation at 1200 rpm for 10 minutes at 4° C., the supernatant was decanted and the red blood cells lysed with 1 ml/spleen ice-cold red blood cell lysis buffer for 1-3 minutes on ice. The supernatant was then carefully transferred into a fresh 15 ml centrifuge tube, leaving the fat pellet behind. […] The number of alive cells was determined using a hemacytometer (Hauser Scientific) and Trypan Blue (Gibco, Life Technologies) as the dye. […]

EST AA571535 = assay: Taqman analysis of EST AA571535 in brain and spleen of treated EAE mice
Method: as §1, §2, §3, §4, §5, §6
(§8) Brain was divided into two halves and each half was placed in a sterile 1.5 ml tube. 0.5 ml TRIzol was added to each tube and the tissue was homogenized using a hand held tissue homogenizer. […]
as §7
(§9) Taqman primers were ordered for the EST with the accession number AA571535 (EST AA571535 (sequence for the EST: SEQ ID NO 18). Primers for the real time Taqman PCR studies were chosen using Primer Express software (Perkin Elmer) and synthesized by Sigma Genosys. The sequences of the forward and reverse primers were AGCAGCCATGGGAGGCA (SEQ ID NO: 19) and TCCGTTTCCCCACAGCAC (SEQ ID NO: 20) respectively. PCR product was run on the 4% agarose gel to confirm presence of a single band. PCR reactions were run on ABI Prizm System 7700 sequence detector (Perkin-Elmer) using CybrGreen PCR Core Reagents Kit (Perkin-Elmer) according to the manufacturer's protocol. […] The results were normalized to 18S and expressed as logarithm base 2 of copy number difference with18S RNA levels. […]

EST AA154371 = assay: Taqman analysis of EST AA154371 in brain and spleen of treated EAE mice
Method: as §1, §2
as §3, with “respectively. Treatment IVL984 or HMR1031 or vehicle control only: 0.2% Hydroxypropyl Methylcellulose) started 7 days after immunization, before the first EAE symptoms appeared.” for “respectively.”
as §5, §6, §8, §7
as §9, with “AA154371” for “AA571535”, “21).” for “18).”, “GACAGGGCTGAGGATTCGG” for “AGCAGCCATGGGAGGCA”, “22)” for “19)”, “TCCGTTTCCCCACAGCAC” left out, “23)” for “20)”

[2] = EAE mice, 50 mg/kg q.d. s.c. for 14 days from day 7, brain, vs vehicle control
[3] = EAE mice, 50 mg/kg q.d. s.c. for 14 days from day 7, spleen, vs vehicle control
[4] = bodily samples of treated EAE mice, tissue not given

## COc1cc(CC(=O)Nc2ccc([C@@H](CC(=O)O)NC(=O)CCCC(=O)O)cc2)ccc1NC(=O)Nc1ccccc1C [IVL 984]
[1]; [2]
  Macrophage mannose receptor, Brain: Tendency (The decrease in macrophage mannose receptor mRNA levels is a statistically significant, a probability rate of 5-15%.)
[1]; [3]
  Macrophage mannose receptor, Spleen: — (The changes in mRNA levels are statisically significant at a probability rate of higher than 15% (not significant).)
[1]; EAE mice, brain samples
  macrophage mannose receptor mRNA levels in comparison to vehicle control mice: statistically significant lower
[1]; [4]
  levels of the genetic marker macrophage mannose receptor mRNA: decreased levels of expression
JAB or SOCS-1 protein
  levels of JAB or SOCS-1 protein: decreased levels of expression on the protein level
EST AA571535; [2]
  EST AA 571535, Brain: — (The changes in mRNA levels are statistically significant at a probability rate of higher than 15% (not significant).)
EST AA571535; [3]
  EST AA 571535, Spleen: — (The changes in mRNA levels are statistically significant at a probability rate of higher than 15% (not significant).)
EST AA571535; EAE mice, brain samples
  EST AA571535 mRNA levels in comparison to vehicle control mice: statistically significant lower
EST AA571535; [4]
  levels of the genetic marker EST AA571535: decreased levels of expression
EST AA154371; [2]
  EST AA 154371, Brain: ✓ (Statistically significant decrease in macrophage mannose receptor mRNA or protein levels with a 5% or lower probability rate in treated mice compared to vehicle control mice.)
EST AA154371; [3]
  EST AA 154371, Spleen: ✓ (Statistically significant decrease in macrophage mannose receptor mRNA or protein levels with a 5% or lower probability rate in treated mice compared to vehicle control mice.)
EST AA154371; EAE mice, brain samples
  EST AA154371 mRNA levels in comparison to vehicle control mice: statistically significant lower
EST AA154371; [4]
  levels of the genetic marker EST AA154371: decreased levels of expression
